Measurements taken from patent US6627734B1 (dated 2003).

Tested on: expressed full length clones containing these insertions (KOR-3a, KOR-3b, KOR-3c)
Experiment: Preliminary binding of [3H]naloxone benzoylhydrazone to expressed full length KOR-3 splice variant clones
Design: species or system mouse
Details: preliminary studies; expressed full length clones with mini-exon insertions (KOR-3a, KOR-3b, KOR-3c); radioligand

For `C=CCN1CC[C@]23c4c5ccc(O)c4O[C@H]2/C(=N/NC(=O)c2ccccc2)CC[C@@]3(O)[C@H]1C5` [[^3H]naloxone benzolhydrazone], the “binding of the kappa3 ligand by the expressed full length clones” value was “quite well”.
